Results: PubChem BioAssay (NCI)
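Briefly, cells in 96-well plates were exposed to five compound concentrations for 48 h, and endpoints were estimated by linear interpolation. GI50 is the concentration that inhibits growth by half. The concentration for full growth arrest is given as TGI.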

How the values were obtained:
Test in all cases: inhibition of tumour cell growth, NCI panel, 48 h
U251 CNS = tested on: U251 CNS
786-0 renal = tested on: 786-0 renal
SNB-75 CNS = tested on: SNB-75 CNS
HOP-92 NSCLC = tested on: HOP-92 NSCLC
SF-295 CNS = tested on: SF-295 CNS
TK-10 renal = tested on: TK-10 renal
HCT-15 colon = tested on: HCT-15 colon
M14 melanoma = tested on: M14 melanoma
DU-145 prostate = tested on: DU-145 prostate
T-47D breast = tested on: T-47D breast

SMILES: C[C@H]1CCC2C(CN3CCCCC3)C(=O)OC2[C@]2(C)C(=O)CC(N3CCCCC3)C12O (stereo not given in full)
- TGI (U251 CNS): 24.5 µM
- TGI (786-0 renal): 22.2 µM
- TGI (SNB-75 CNS): 49.4 µM
- TGI (HOP-92 NSCLC): 7.54 µM
- TGI (SF-295 CNS): 22.3 µM
- TGI (TK-10 renal): 34.3 µM

SMILES: Cc1cc(C)c(C(=O)/C(=C/c2ccccc2)c2ccccc2)c(C)c1
- TGI (U251 CNS): > 100 µM
- TGI (786-0 renal): > 100 µM
- TGI (SNB-75 CNS): > 100 µM
- TGI (HOP-92 NSCLC): > 100 µM
- TGI (SF-295 CNS): > 100 µM
- TGI (HCT-15 colon): > 100 µM
- TGI (M14 melanoma): > 100 µM
- TGI (TK-10 renal): > 100 µM

SMILES: Oc1[nH]c2ccccc2c1/C=c1/ccc2c(c1)N=C(c1cc(F)cc(F)c1)N=2
- GI50 (U251 CNS): 3.89 µM
- TGI (U251 CNS): 17.6 µM
- GI50 (786-0 renal): 10 µM
- TGI (786-0 renal): 22 µM
- GI50 (SNB-75 CNS): 3.22 µM
- TGI (SNB-75 CNS): 17.7 µM
- GI50 (DU-145 prostate): 10.2 µM
- TGI (DU-145 prostate): 22.2 µM
- GI50 (SF-295 CNS): 2.84 µM
- TGI (SF-295 CNS): 10.9 µM
- GI50 (HCT-15 colon): 3.52 µM
- TGI (HCT-15 colon): 14.1 µM
- GI50 (M14 melanoma): 2.7 µM
- TGI (M14 melanoma): 13.6 µM
- GI50 (T-47D breast): 4.55 µM
- TGI (T-47D breast): 21.3 µM
- GI50 (TK-10 renal): 14 µM
- TGI (TK-10 renal): 27.7 µM

SMILES: CCN(CC)CCNC(=O)C(Cl)=C1C(Cl)=C(Cl)C(Cl)=C1Cl
- GI50 (U251 CNS): 2.85 µM
- TGI (U251 CNS): 10.2 µM
- GI50 (786-0 renal): 5.07 µM
- TGI (786-0 renal): 41.7 µM
- GI50 (SNB-75 CNS): 2.21 µM
- TGI (SNB-75 CNS): 6.78 µM
- GI50 (DU-145 prostate): 2.78 µM
- TGI (DU-145 prostate): 10.8 µM
- GI50 (HOP-92 NSCLC): 2.37 µM
- TGI (HOP-92 NSCLC): 8.62 µM
- GI50 (SF-295 CNS): 5.39 µM
- TGI (SF-295 CNS): 29.3 µM
- GI50 (HCT-15 colon): 2.78 µM
- TGI (HCT-15 colon): 12.7 µM
- GI50 (T-47D breast): 4.19 µM
- TGI (T-47D breast): 45.6 µM
- GI50 (TK-10 renal): 3.07 µM
- TGI (TK-10 renal): > 100 µM

SMILES: Cc1ccnc(NC(c2ccccc2)c2ccc3cccnc3c2O)c1 (stereo not given)
- GI50 (U251 CNS): 2.85 µM
- TGI (U251 CNS): 12.7 µM
- GI50 (786-0 renal): 2.93 µM
- TGI (786-0 renal): 35.1 µM
- GI50 (SNB-75 CNS): 21.1 µM
- TGI (SNB-75 CNS): > 100 µM
- GI50 (DU-145 prostate): 4.9 µM
- TGI (DU-145 prostate): > 100 µM
- GI50 (HOP-92 NSCLC): 2.11 µM
- TGI (HOP-92 NSCLC): 8.95 µM
- GI50 (SF-295 CNS): 2.42 µM
- TGI (SF-295 CNS): 16.3 µM
- GI50 (HCT-15 colon): 3.35 µM
- TGI (HCT-15 colon): > 100 µM
- GI50 (M14 melanoma): 3.09 µM
- TGI (M14 melanoma): 29.2 µM
- GI50 (T-47D breast): 4.22 µM
- TGI (T-47D breast): 35.1 µM

SMILES: Cc1cc(C)c(C2=NO[C@@H]3C(=O)N(c4ccc(Cc5ccc(N6C(=O)[C@H]7C(c8c(C)cc(C)cc8C)=NO[C@H]7C6=O)cc5)cc4)C(=O)[C@H]23)c(C)c1
- TGI (786-0 renal): > 100 µM
- TGI (SNB-75 CNS): > 100 µM
- TGI (HOP-92 NSCLC): > 100 µM
- TGI (SF-295 CNS): > 100 µM
- TGI (HCT-15 colon): > 100 µM
- TGI (M14 melanoma): > 100 µM
- TGI (TK-10 renal): > 100 µM

SMILES: O=Cc1cn(S(=O)(=O)c2ccccc2)c2ccccc12
- TGI (U251 CNS): > 100 µM
- TGI (786-0 renal): > 100 µM
- TGI (SNB-75 CNS): > 100 µM
- TGI (SF-295 CNS): > 100 µM
- TGI (HCT-15 colon): > 100 µM
- TGI (M14 melanoma): > 100 µM
- TGI (TK-10 renal): > 100 µM

SMILES: C1C[S][Ge]2([S]CCS1)[S]CCSCC[S]2
- GI50 (786-0 renal): > 100 µM
- TGI (786-0 renal): > 100 µM
- GI50 (SNB-75 CNS): 18.9 µM
- TGI (SNB-75 CNS): 95 µM
- GI50 (HOP-92 NSCLC): > 100 µM
- TGI (HOP-92 NSCLC): > 100 µM
- GI50 (HCT-15 colon): > 100 µM
- TGI (HCT-15 colon): > 100 µM
- GI50 (M14 melanoma): > 100 µM
- TGI (M14 melanoma): > 100 µM

SMILES: Cc1nc(-n2nc(-c3ccccc3)cc2-c2ccccc2)sc1C(/C=C/c1ccc([N+](=O)[O-])cc1)=N/NC(N)=S
- TGI (U251 CNS): > 100 µM
- TGI (786-0 renal): 43.6 µM
- TGI (SNB-75 CNS): > 100 µM
- TGI (HOP-92 NSCLC): > 100 µM
- TGI (SF-295 CNS): > 100 µM
- TGI (HCT-15 colon): > 100 µM
- TGI (M14 melanoma): > 100 µM
- TGI (TK-10 renal): > 100 µM

SMILES: O=c1[nH]c(-c2ccc([N+](=O)[O-])cc2)nc2ccc(Cl)cc12
- TGI (U251 CNS): > 100 µM
- TGI (786-0 renal): > 100 µM
- TGI (SNB-75 CNS): > 100 µM
- TGI (HOP-92 NSCLC): 84.2 µM
- TGI (SF-295 CNS): > 100 µM
- TGI (HCT-15 colon): > 100 µM
- TGI (TK-10 renal): > 100 µM

SMILES: NNc1ncnc2cccc(Cl)c12
- TGI (U251 CNS): > 100 µM
- TGI (786-0 renal): > 100 µM
- TGI (SNB-75 CNS): > 100 µM
- TGI (DU-145 prostate): > 100 µM
- TGI (SF-295 CNS): > 100 µM
- TGI (HCT-15 colon): > 100 µM
- TGI (M14 melanoma): > 100 µM
- TGI (T-47D breast): > 100 µM
- TGI (TK-10 renal): > 100 µM

SMILES: C/C(CC(=O)Nc1ccc([N+](=O)[O-])cc1)=N\Nc1ccc([N+](=O)[O-])cc1[N+](=O)[O-]
- TGI (U251 CNS): > 100 µM
- TGI (786-0 renal): > 100 µM
- TGI (SNB-75 CNS): > 100 µM
- TGI (HOP-92 NSCLC): > 100 µM
- TGI (SF-295 CNS): > 100 µM
- TGI (HCT-15 colon): > 100 µM
- TGI (M14 melanoma): > 100 µM
- TGI (TK-10 renal): > 100 µM

SMILES: CN(CC1NCCCC1O)C12CC3CC(CC(C3)C1)C2 (stereo not given)
- TGI (U251 CNS): > 100 µM
- TGI (786-0 renal): > 100 µM
- TGI (HOP-92 NSCLC): > 100 µM
- TGI (SF-295 CNS): > 100 µM
- TGI (HCT-15 colon): > 100 µM
- TGI (M14 melanoma): > 100 µM
- TGI (TK-10 renal): > 100 µM

SMILES: O=C1CCCCCCCCCCOC(=O)CCCCCCCCCCO1
- TGI (U251 CNS): > 100 µM
- TGI (786-0 renal): > 100 µM
- TGI (SNB-75 CNS): > 100 µM
- TGI (HOP-92 NSCLC): > 100 µM
- TGI (SF-295 CNS): > 100 µM
- TGI (HCT-15 colon): > 100 µM
- TGI (M14 melanoma): > 100 µM
- TGI (TK-10 renal): > 100 µM

SMILES: Clc1ccc(Nc2ncnc3c2sc2ncccc23)c(Cl)c1
- GI50 (U251 CNS): 0.0152 µM
- TGI (U251 CNS): > 100 µM
- GI50 (786-0 renal): < 0.01 µM
- TGI (786-0 renal): > 100 µM
- GI50 (SNB-75 CNS): 0.0689 µM
- TGI (SNB-75 CNS): > 30.9 µM
- GI50 (DU-145 prostate): 0.0276 µM
- TGI (DU-145 prostate): > 100 µM
- GI50 (HOP-92 NSCLC): 0.0632 µM
- TGI (HOP-92 NSCLC): 21.6 µM
- GI50 (SF-295 CNS): 0.0309 µM
- TGI (SF-295 CNS): > 100 µM
- GI50 (HCT-15 colon): 0.052 µM
- TGI (HCT-15 colon): > 100 µM
- GI50 (M14 melanoma): < 0.01 µM
- TGI (M14 melanoma): 0.038 µM
- GI50 (TK-10 renal): > 100 µM
- TGI (TK-10 renal): > 100 µM

SMILES: C/C(CC(=O)Nc1cccc(C)c1C)=N\NC(N)=S
- TGI (U251 CNS): > 100 µM
- TGI (786-0 renal): > 100 µM
- TGI (SNB-75 CNS): > 100 µM
- TGI (HOP-92 NSCLC): > 100 µM
- TGI (SF-295 CNS): > 100 µM
- TGI (HCT-15 colon): > 100 µM
- TGI (M14 melanoma): > 100 µM
- TGI (TK-10 renal): > 100 µM

SMILES: C=C1CCC2(C(C)=O)COC1(C)O2 (stereo not given)
- TGI (U251 CNS): > 100 µM
- TGI (786-0 renal): > 100 µM
- TGI (SNB-75 CNS): > 100 µM
- TGI (SF-295 CNS): > 100 µM
- TGI (HCT-15 colon): > 100 µM
- TGI (M14 melanoma): > 100 µM
- TGI (TK-10 renal): > 100 µM

SMILES: CN1c2ccccc2S(=O)(=O)n2c(COc3ccccc3)nnc21
- TGI (U251 CNS): > 100 µM
- TGI (786-0 renal): > 100 µM
- TGI (DU-145 prostate): > 100 µM
- TGI (HOP-92 NSCLC): > 100 µM
- TGI (SF-295 CNS): > 100 µM
- TGI (HCT-15 colon): > 100 µM
- TGI (M14 melanoma): > 100 µM
- TGI (T-47D breast): > 100 µM
- TGI (TK-10 renal): > 100 µM

SMILES: COc1cc(=O)oc(/C=C/CO)c1C
- TGI (U251 CNS): > 100 µM
- TGI (786-0 renal): > 100 µM
- TGI (SNB-75 CNS): > 100 µM
- TGI (HOP-92 NSCLC): > 100 µM
- TGI (SF-295 CNS): > 100 µM
- TGI (M14 melanoma): > 100 µM
- TGI (TK-10 renal): > 100 µM

SMILES: O=C(O)C1C2CCC(O2)C1C(=O)NCc1cccnc1 (stereo not given)
- TGI (U251 CNS): > 100 µM
- TGI (786-0 renal): > 100 µM
- TGI (SNB-75 CNS): > 100 µM
- TGI (DU-145 prostate): > 100 µM
- TGI (SF-295 CNS): > 100 µM
- TGI (HCT-15 colon): > 100 µM
- TGI (M14 melanoma): > 100 µM
- TGI (T-47D breast): > 100 µM
- TGI (TK-10 renal): > 100 µM

SMILES: C=CCn1c(=O)c(C(=O)NC(=O)OCC)cn(C2CCCCC2)c1=O
- TGI (U251 CNS): > 100 µM
- TGI (786-0 renal): > 100 µM
- TGI (SNB-75 CNS): > 100 µM
- TGI (HOP-92 NSCLC): > 100 µM
- TGI (SF-295 CNS): > 100 µM
- TGI (HCT-15 colon): > 100 µM
- TGI (M14 melanoma): > 100 µM
- TGI (TK-10 renal): > 100 µM
